Measured values from patent US9757455B2, “Oral therapeutic compound delivery system” (Johnson & Johnson Consumer Inc., priority 2005, dated 2017).
In brackets after ≈: the same amount, converted by molar mass. Counter-ions that a name gives are not always drawn. Like-named read-outs stand apart in the source and are kept apart here. Marks after values point to notes of the source that are not given here.

How the values were obtained:
[1] = Dissolution, USP dissolution apparatus 2, 900 mL 0.0033 N hydrochloric acid, 30 rpm, 37° C.; assay type: physicochemical; conditions: basic and amphoteric drugs in formulations according to the invention (Table 32)
Protocol: (§1) Testing was conducted in a dissolution medium containing 900 mL 0.0033 N hydrochloric acid (HCl) at 37° C. which discriminates better between fast dissolving formulations than more acidic dissolution media where the effect of high acid concentration tends to mask formulation effects on dissolution. 900 mL of this medium contains the absolute amount of acid estimated to be present in the gastric contents in vivo, namely 3 millimoles.
(§2) Testing at was conducted at a stirring speed of 30 rpm and also at 0 rpm which provides more discrimination between formulations. To achieve maximum dissolution, the stirring speed was increased to 250 rpm for 10 minutes after 20 minutes for measurements at 30 rpm, and after 60 minutes for measurements at 0 rpm.
(§3) Unless otherwise stated, drug concentrations were measured using a Varian Cary 50 UV-Vis Spectrophotometer set at an appropriate wavelength using flow through cells for automatic continuous sampling. For each drug, the optimal wavelength was selected after running UV scans in the dissolution medium.
A suitable C18 column and guard column were used. Results were processed using Waters Empower software.

[2] = Dissolution, USP dissolution apparatus 2, 900 mL 0.0033 N hydrochloric acid, 0 rpm, 37° C.; assay type: physicochemical; conditions: for % dissolved in 900 mL 0.0033 N HCl: basic and amphoteric drugs in formulations according to the invention (Table 32), 0 rpm
Protocol: as §1
Dissolution results without stirring may be of in vivo significance in conditions where there is gut stasis or reduced gastric activity.
as §2, §3

Solubility in water = conditions: for solubility: water
[3] = Effect of different alkaline agents on paracetamol absorption in vivo (5 subject crossover studies, plasma paracetamol); conditions: human, oral, 1000 mg, two tablets each 500 mg paracetamol, fasted, read-out: Median AUC20 (converted)
Protocol: In a series of multiple 5 subject crossover studies, the effect of a range of different formulations containing different alkali agents on in vivo absorption were investigated. Subjects were fasted overnight and dosed with two tablets each containing 500 mg paracetamol. Plasma levels of paracetamol were monitored for 8 hours, with 10 samples taken in the first hour.

[4] = 30 minutes, 30 rpm (increased to 250 rpm after 20 minutes)
[5] = pH modulating agent: Bicarb + acid, 300 sec (Table 33)
[6] = pH modulating agent: Bicarb + acid, 15 min (Table 33)
[7] = pH modulating agent: Bicarb + acid, 30 min (Table 33)
[8] = pH modulating agent: Bicarbonate, 300 sec (Table 33)
[9] = pH modulating agent: Bicarbonate, 15 min (Table 33)
[10] = pH modulating agent: Bicarbonate, 30 min (Table 33)
[11] = dose (mg) of each drug as in Table 78

Row | SMILES | % dissolved in 900 mL 0.0033 N HCl ([1]; 180 sec, 30 rpm) [%] | % dissolved in 900 mL 0.0033 N HCl ([1]; 300 sec, 30 rpm) [%] | % dissolved in 900 mL 0.0033 N HCl ([1]; 15 minutes, 30 rpm) [%] | % dissolved in 900 mL 0.0033 N HCl [1, 4] [%] | % dissolved in 900 mL 0.0033 N HCl ([2]; 180 sec) [%] | % dissolved in 900 mL 0.0033 N HCl ([2]; 300 sec) [%] | % dissolved in 900 mL 0.0033 N HCl ([2]; 15 minutes) [%] | % dissolved in 900 mL 0.0033 N HCl ([2]; 30 minutes) [%] | Volume (mL) of water to dissolve dose (Solubility in water; [11]) [mL] | Effect of ↑ pH on solubility (Solubility in water) | also measured
1 | Cc1nnc2n1-c1ccc(Cl)cc1C(c1ccccc1)=NC2 [Alprazolam] | 61 | 67 | 77 | 100 | 13 | 20 | 45 | 63 | 14 | – | % drug dissolved in 900 mL 0.0033 N HCl at 0 rpm [2, 5]: 20%; % drug dissolved in 900 mL 0.0033 N HCl at 0 rpm [2, 6]: 45%; % drug dissolved in 900 mL 0.0033 N HCl at 0 rpm [2, 7]: 63%; % drug dissolved in 900 mL 0.0033 N HCl at 0 rpm [2, 8]: 1%; % drug dissolved in 900 mL 0.0033 N HCl at 0 rpm [2, 9]: 4%; % drug dissolved in 900 mL 0.0033 N HCl at 0 rpm [2, 10]: 4%
2 | Cc1ccc(-c2cc(C(F)(F)F)nn2-c2ccc(S(N)(=O)=O)cc2)cc1 [Celecoxib] | – | – | – | – | – | – | – | – | – | ⇄ | solubility (Solubility in water): 3.46 µg/mL (≈ 9.07 µM)
3 | C[C@@H]1C[C@H]2[C@@H]3CCC4=CC(=O)C=C[C@]4(C)[C@@]3(F)[C@@H](O)C[C@]2(C)[C@@]1(O)C(=O)CO [Dexamethasone] | – | – | – | – | – | – | – | – | – | ⇄ | –
4 | O=C(O)Cc1ccccc1Nc1c(Cl)cccc1Cl [Diclofenac potassium] | – | – | – | – | – | – | – | – | – | ↑ | Volume of water (mL) to dissolve dose (Solubility in water; dose per tablet as in label): 7 mL; solubility (Solubility in water): 10000 µg/mL
5 | CN1CCC[C@@H]1Cc1c[nH]c2ccc(CCS(=O)(=O)c3ccccc3)cc12 [Eletriptan hydrochloride, Eletriptan hydrobromide] | 94 | 96 | 97 | 99 | 88 | 95 | 98 | 100 | 4 | – | –
6 | Cc1ccc(C)c(OCCCC(C)(C)C(=O)O)c1 [Gemfibrozil] | – | – | – | – | – | – | – | – | – | ↑ | Volume of water (mL) to dissolve dose (Solubility in water; dose per tablet as in label): 20,690 mL; solubility (Solubility in water): 29 µg/mL (≈ 116 µM)
7 | CC(C)Cc1ccc(C(C)C(=O)O)cc1 (stereo not shown) [Ibuprofen] | – | – | – | – | – | – | – | – | – | ↑ | solubility (Solubility in water): 40 µg/mL (≈ 194 µM)
8 | CN(C)C(=O)C(CCN1CCC(O)(c2ccc(Cl)cc2)CC1)(c1ccccc1)c1ccccc1 [Loperamide hydrochloride] | 82 | 84 | 89 | 100 | 70 | 72 | 87 | 95 | – | – | % drug dissolved in 900 mL 0.0033 N HCl at 0 rpm [2, 5]: 72%; % drug dissolved in 900 mL 0.0033 N HCl at 0 rpm [2, 6]: 87%; % drug dissolved in 900 mL 0.0033 N HCl at 0 rpm [2, 7]: 95%; % drug dissolved in 900 mL 0.0033 N HCl at 0 rpm [2, 8]: 27%; % drug dissolved in 900 mL 0.0033 N HCl at 0 rpm [2, 9]: 43%; % drug dissolved in 900 mL 0.0033 N HCl at 0 rpm [2, 10]: 101%; Volume (mL) of water to dissolve dose (Solubility in water): 2 mL
9 | O=C1Nc2ccc(Cl)cc2C(c2ccccc2Cl)=NC1O (stereo not shown) [Lorazepam] | 77 | 88 | 96 | 100 | 77 | 85 | 95 | 99 | – | – | % drug dissolved in 900 mL 0.0033 N HCl at 0 rpm [2, 5]: 85%; % drug dissolved in 900 mL 0.0033 N HCl at 0 rpm [2, 6]: 95%; % drug dissolved in 900 mL 0.0033 N HCl at 0 rpm [2, 7]: 99%; % drug dissolved in 900 mL 0.0033 N HCl at 0 rpm [2, 8]: 6%; % drug dissolved in 900 mL 0.0033 N HCl at 0 rpm [2, 9]: 6%; % drug dissolved in 900 mL 0.0033 N HCl at 0 rpm [2, 10]: 11%
10 | CCN(CC)CCNC(=O)c1cc(Cl)c(N)cc1OC [Metoclopramide hydrochloride] | 94 | 95 | 97 | 100 | 26 | 69 | 86 | 91 | 50 | – | % drug dissolved in 900 mL 0.0033 N HCl at 0 rpm [2, 5]: 69%; % drug dissolved in 900 mL 0.0033 N HCl at 0 rpm [2, 6]: 86%; % drug dissolved in 900 mL 0.0033 N HCl at 0 rpm [2, 7]: 91%; % drug dissolved in 900 mL 0.0033 N HCl at 0 rpm [2, 8]: 5%; % drug dissolved in 900 mL 0.0033 N HCl at 0 rpm [2, 9]: 28%; % drug dissolved in 900 mL 0.0033 N HCl at 0 rpm [2, 10]: 46%
11 | Cc1nccn1CC1CCc2c(c3ccccc3n2C)C1=O (stereo not shown) [Ondansetron hydrochloride] | 88 | 96 | 100 | 100 | 50 | 65 | 79 | 85 | 4 | – | Solubility in water (Solubility in water): 2.42 mg/mL
12 | CC(=O)Nc1ccc(O)cc1 [Paracetamol] | – | – | – | – | – | – | – | – | – | ⇄ | AUC ([3]; Magnesium carbonate, dose 150 mg): 1140 ng·h/mL; AUC ([3]; Magnesium carbonate, dose 300 mg): 2010 ng·h/mL; AUC ([3]; Sodium bicarbonate, dose 200 mg): 3810 ng·h/mL; AUC ([3]; Sodium bicarbonate, dose 400 mg): 4760 ng·h/mL; AUC ([3]; Sodium bicarbonate, dose 800 mg): 4400 ng·h/mL; AUC ([3]; Sodium bicarbonate, dose 1200 mg): 2680 ng·h/mL; AUC ([3]; alkaline agent None, dose 0 mg): 1590 ng·h/mL; Volume of water (mL) to dissolve dose (Solubility in water; dose per tablet as in label): 36 mL; water needed for total dissolution of the dose (Solubility in water; doses of Example 33 (tramadol hydrochloride 37.5 mg, paracetamol 325 mg)): around 27 mL; solubility (Solubility in water): ~14000 µg/mL (≈ 92600 µM)
13 | C[C@]12C=CC(=O)C=C1CC[C@@H]1[C@@H]2[C@@H](O)C[C@@]2(C)[C@H]1CC[C@]2(O)C(=O)CO [Prednisolone] | – | – | – | – | – | – | – | – | – | – | Volume of water (mL) to dissolve dose (Solubility in water; dose per tablet as in label, listed as Prednisolone 5 mg): 23 mL; Volume of water (mL) to dissolve dose (Solubility in water; dose per tablet as in label, listed as Prednisolone 25 mg): 114 mL
14 | CN(C)CCc1c[nH]c2ccc(Cn3cncn3)cc12 [Rizatriptan benzoate] | 96 | 96 | 96 | 97 | 94 | – | 100 | 100 | 0.3 | – | Solubility in water (Solubility in water; solubility of the base not salt): 42* mg/mL
15 | CN1C(=O)C(O)N=C(c2ccccc2)c2cc(Cl)ccc21 (stereo not shown) [Temazepam] | – | – | – | – | – | – | – | – | – | – | Volume of water (mL) to dissolve dose (Solubility in water): 83 mL
16 | COc1cccc(C2(O)CCCCC2CN(C)C)c1 (stereo not shown) [Tramadol hydrochloride] | 100 | 100 | 100 | 100 | 87 | 95 | 99 | 100 | – | – | Volume (mL) of water to dissolve dose (Solubility in water): 1.3 mL; water needed for total dissolution of the dose (Solubility in water): around 1 mL; solubility (physchem): ~30000 µg/mL; solubility (physchem; water): ~30000 µg/mL
17 | CN(C)CCc1c[nH]c2ccc(C[C@H]3COC(=O)N3)cc12 [Zolmitriptan] | 73 | 76 | 86 | 98 | 66 | 77 | 88 | 96 | 2 | – | –
18 | Cc1ccc(-c2nc3ccc(C)cn3c2CC(=O)N(C)C)cc1 [Zolpidem tartrate] | 96 | 96 | 97 | 98 | 77 | 91 | 94 | 96 | 0.4 | – | –
